Assays:
[1] = system: Clone D122 of the 3LL mouse Lewis Lung carcinoma; test: Lung carcinoma mouse model: 3LL cells in footpad, local growth and mortality from lung metastasis after excision; type: in vivo; conditions: for day of 50% mortality from lung metastasis: 100 μg in PBS subcutaneously twice weekly
Description: Clone D122 of the 3LL mouse Lewis Lung carcinoma, a standard model of growth and metastasis, was used. Syngeneic 8-weeks old C57BL/6 male mice were injected into one hind footpad with 50,000 3LL tumor cells. Local growth of the tumor was followed. Tumors that reached the size of 8 mm×8 mm were excised; tumor excision at this stage was known to trigger the growth of lung metastases that eventually killed the mice. This model allows for investigation of the effect of treatment on two phases of the tumor progression: 1) the effect on local growth, as determined by the time it takes for the tumors to reach the size for excision; and 2) the effect on tumor metastasis as measured by the time it takes for death to occur after excision.
Three groups of 12-13 mice each were injected with 3LL tumor cells as described in the Materials and Methods section, and were treated subcutaneously with 100 μg of amino-phenyl-acetic acid octadec-(Z)-9-enyl ester injected twice weekly (every Monday and Thursday) either from day 6 after tumor injection (to investigate the effect on local growth and metastasis) or from the time of excision of the tumor (to investigate the effect on metastasis only), or were injected with PBS as a control. […] Tumors were excised on the same day. Mice treated with PBS or mice treated with amino-phenyl-acetic acid octadec-(Z)-9-enyl ester in PBS only following tumor excision reached excision size beginning on day 25 (white bars). In contrast, mice treated with amino-phenyl-acetic acid octadec-(Z)-9-enyl ester from day 6 following injection (black bars) reached excision size on day 32, and all mice were excised by day 41.
The PBS-treated mice reached 50% mortality on day 50 (triangles); the mice receiving amino-phenyl-acetic acid octadec-(Z)-9-enyl ester in PBS after tumor excision reached 50% mortality only on day 68 (squares); and the mice treated with amino-phenyl-acetic acid octadec-(Z)-9-enyl ester in PBS from day 6 following tumor implantation reached 50% mortality on day 90 (circles).

[2] = system: unstimulated CD3 positive T cells; test: Microarray gene expression, unstimulated T cells; type: cell-based, human; conditions: for Fold change C16orf7: 205781_at; for Fold change TNFRSF17: 206641_at; for Fold change LILRB2 /// LILRB3: 210784_x_at; for Fold change CLEC11A: 211709_s_at; for Fold change WDR33: 218851_s_at
Description: CD3 positive T cells were extracted from a healthy donor according to a standard protocol, and seeded in T cell medium including RPMI, 10% fetal calf serum, sodium pyruvate, L-Glutamine, and Penicillin/Streptomycin. Following an overnight incubation with medium, the cells were treated by incubating for 2 hours at 37° C. with amino-phenyl-acetic acid octadec-(Z)-9-enyl ester at a concentration of 10 micrograms/ml in a final volume of 10 ml in T-cell medium with or without 0.05% ethanol. After incubation, half the cells from each treatment were centrifuged and 2 ml of Tri-reagent (Sigma) were added to the pellet. The other half of the cells from each treatment were transferred to anti-CD3 antibody coated 24 well plates for an overnight incubation at 37° C. Coating plates with an anti-CD3 antibody was carried out by incubating with 2 micrograms/ml of OKT3 anti-CD3 antibody overnight at 4° C., washing three times with PBS and blocking with filtered 1% Bovine Serum Albumin for 1 hour. After activation with anti-CD3 antibody, cells were centrifuged and 2 ml of Tri-reagent were added to the pellet.
RNA was extracted from unstimulated cells and from cells activated with anti-CD3 according to standard protocols and used for hybridization with a Human Genome U133A 2.0 (Affymetrix, Catalogue number 900468), according to the manufacturer's instructions. The results of the hybridization were read by a GeneChip scanner 3000 (Affymetrix) and analyzed by QuantArray (GSI lumonics).
The effects of amino-phenyl-acetic acid octadec-(Z)-9-enyl ester in ethanol solution or in an aqueous vehicle (hereinafter termed “in PBS”) on gene expression in unstimulated T cells and T cells activated by anti-CD3 antibody were compared by microarray analysis.

[3] = system: human peripheral blood T cells; test: Apoptosis by FACS, hypo-diploid nuclei PI staining, healthy T cells; type: cell-based; conditions: 10 μg in ethanol solution, versus control molecule
Description: White bars (left bar of each pair) represent cells treated with 10 μg of amino-phenyl-acetic acid octadec-(Z)-9-enyl ester in ethanol solution, and black bars (right bar of each pair) represent cells treated with 10 μg of the control molecule 4-methyl-piperazino-acetic acid ethyl ester in ethanol solution. The two bars on the left represent freshly isolated T cells and the two bars on the right represent transformed Jurkat cells.
B or T-cell apoptosis was detected by flow cytometry. Briefly, purified cells were seeded in 24 well plates, 5×10^5 per well, and incubated for 48 h at 37° C. 5% CO2 in the presence of HSP60 (heat shock protein 60) at the indicated concentration of amino-phenyl-acetic acid octadec-(Z)-9-enyl ester. […] The cells were then subjected to flow cytometric analysis; for each sample 10,000 were collected and cell-cycle distribution was analyzed according to relative DNA content (PI staining). […] The cells were then collected, stained by APO-DIRECT TUNNEL kit (Phnxflow, CITY, Calif., USA); mitochondrial potential was measured by DePsipher (R&D Systems, Minneapolis, Minn.) according to the manufacturer's procedure. Intracellular caspase activity was measured by Apostat kit (R&D Systems), according to the manufacturer's procedure. The cells were analyzed by Flow cytometry using FACSort (Becton Dickinson) and CellQuest software (Becton Dickinson).

[4] = 100 μg in PBS subcutaneously twice weekly from day 6 after tumor injection
[5] = in ethanol solution vs untreated
[6] = in ethanol solution vs untreated, data not shown

CCCCCCCC/C=C\CCCCCCCCOC(=O)C(N)c1ccccc1 (stereo not drawn) [amino-phenyl-acetic acid octadec-(Z)-9-enyl ester]
day after tumor injection on which mice reached excision size (8 mm×8 mm) [1, 4]: 32 days | day by which all mice were excised [1, 4]: ≤ 41 days | day of 50% mortality from lung metastasis ([1]; from day 6 following tumor implantation): 90 days | day of 50% mortality from lung metastasis ([1]; from tumor excision): 68 days | effect on local tumor growth ([1]; twice weekly at the dose of 100 μg, in PBS, subcutaneously): inhibited local tumor growth | Fold change SYMPK ([2]; 32402_s_at, in ethanol solution vs in PBS): 2.03 | Fold change HEY1 ([2]; 44783_s_at, in ethanol solution vs untreated): 2.11 | Fold change TPM2 ([2]; 204083_s_at, in ethanol solution vs untreated): 2.39 | Fold change CDC25A ([2]; 204695_at, in ethanol solution vs in PBS): 1.94 | Fold change EPHB6 ([2]; 204718_at, in ethanol solution vs in PBS): 2.019 | Fold change RRAD ([2]; 204802_at, in ethanol solution vs in PBS): 2.27 | Fold change C16orf7 ([2]; in ethanol solution vs in PBS): 2.54 | Fold change C16orf7 [2, 5]: 2.15 | Fold change RASA3 ([2]; 206221_at, in PBS vs untreated): −2.23 | Fold change FLJ23556 ([2]; 206548_at, in ethanol solution vs in PBS): 1.94 | Fold change TNFRSF17 ([2]; in ethanol solution vs in PBS): 2.08 | Fold change TNFRSF17 [2, 5]: 2.06 | Fold change SPAG9 ([2]; 206748_s_at, in PBS vs untreated): −1.81 | Fold change CRTC1 ([2]; 207159_x_at, in ethanol solution vs in PBS): 1.96 | Fold change TSPAN4 ([2]; 209263_x_at, in ethanol solution vs in PBS): 2.24 | Fold change SF3A2 ([2]; 209381_x_at, in ethanol solution vs untreated): 1.95 | Fold change TBC1D22A ([2]; 210144_at, in ethanol solution vs untreated): 2.03 | Fold change LILRB2 /// LILRB3 ([2]; in PBS vs untreated): −1.84 | Fold change LILRB2 /// LILRB3 ([2]; in ethanol solution vs in PBS): 2.00 | Fold change CLEC11A ([2]; in ethanol solution vs in PBS): 2.10 | Fold change CLEC11A [2, 5]: 2.19 | Fold change BOP1 /// LOC727967 ([2]; 212563_at, in ethanol solution vs in PBS): 1.94 | Fold change ID2 /// ID2B ([2]; 213931_at, in ethanol solution vs in PBS): 2.04 | Fold change MCL1 ([2]; 214057_at, in ethanol solution vs untreated): 2.12 | Fold change S100A8 ([2]; 214370_at, in ethanol solution vs untreated): 1.9 | Fold change MTMR1 ([2]; 214975_s_at, in PBS vs untreated): −2.41 | Fold change probeset 215450_at ([2]; 215450_at, in ethanol solution vs untreated): 1.98 | Fold change ARPC4 ([2]; 217817_at, in ethanol solution vs untreated): 2.03 | Fold change CENPT ([2]; 218148_at, in ethanol solution vs untreated): 1.94 | Fold change CLN6 ([2]; 218161_s_at, in ethanol solution vs in PBS): 1.94 | Fold change IGF2BP2 ([2]; 218847_at, in ethanol solution vs untreated): 2.02 | Fold change WDR33 ([2]; in ethanol solution vs in PBS): 2.79 | Fold change WDR33 [2, 5]: 2.32 | Fold change IGHD ([2]; 222285_at, in ethanol solution vs untreated): 1.98 | Fold change probeset 222376_at ([2]; 222376_at, in ethanol solution vs untreated): 2.11 | up-regulated genes ([2]; in PBS vs untreated): no significantly up-regulated genes | number of down-regulated genes ([2]; in ethanol solution compared with in PBS): 497 genes | fold down-regulation of the down-regulated genes [2, 6]: 2-18 fold | number of down-regulated genes [2, 6]: 573 genes | apoptosis [3]: no more apoptosis than with a control molecule

Reference: patent US20150157588A1, “Pharmaceutical Composition Comprising Amino-Phenyl-Acetic Acid Octadec-(Z)-9-enyl Ester and Use Thereof for Treating Tumors” (Yeda Research and Development Co., Ltd., priority 2012, published 2015)
